# ChEMBL document CHEMBL3297657, “Synthesis and antitumor activities of novel α-aminophosphonate derivatives containing an alizarin moiety” (Eur J Med Chem, 2014)
# How the values were obtained:
# CNE = experiment: Cytotoxicity against human CNE cells after 48 hrs by MTT assay; assay type: functional, cell-based
# NCI-H460 [1] = experiment: Induction of apoptosis in human NCI-H460 cells assessed as change in mitochondrial membrane potential at 8 uM by JC-1 staining-based fluorescence microscopy relative to control; assay type: functional, cell-based; conditions: TDE = time-dependent effect
# NCI-H460 [2] = experiment: Induction of apoptosis in human NCI-H460 cells assessed as early apoptotic cells at 5 uM after 24 hrs by Annexin V/propidium iodide staining-based flow cytometry (reference value: 6.8%); assay type: functional
# NCI-H460 [3] = experiment: Induction of apoptosis in human NCI-H460 cells assessed as late apoptotic cells at 5 uM after 24 hrs by Annexin V/propidium iodide staining-based flow cytometry (reference value: 14.1%); assay type: functional
# NCI-H460 [4] = experiment: Induction of apoptosis in human NCI-H460 cells assessed as necrotic cells at 20 uM after 24 hrs by Annexin V/propidium iodide staining-based flow cytometry (reference value: 6.9%); assay type: functional
# NCI-H460 [5] = experiment: Induction of apoptosis in human NCI-H460 cells assessed as viable cells at 8 uM after 12 hrs by Annexin V/propidium iodide staining-based flow cytometry (reference value: 72.2%); assay type: functional; conditions: NCI-H460, 12 h, read-out: Activity
SMILES,IC50 (CNE) [µM],Activity (NCI-H460 [1]),Activity (NCI-H460 [2]) [%],Activity (NCI-H460 [3]) [%],Activity (NCI-H460 [4]) [%],viability at 8 µM (NCI-H460 [5]) [%]
CCOP(=O)(OCC)C(NC(=O)C(C)Oc1ccc2c(c1O)C(=O)c1ccccc1C2=O)c1ccccc1F (stereo not drawn),30.2,tde,28.9,9.2,1.4,61.3
CCOP(=O)(OCC)C(NC(=O)C(C)Oc1ccc2c(c1O)C(=O)c1ccccc1C2=O)c1ccccc1OC (stereo not drawn),34.2,tde,26.6,8.6,12.9,71.9
CCOP(=O)(OCC)C(NC(=O)C(C)Oc1ccc2c(c1O)C(=O)c1ccccc1C2=O)c1cccc2ccccc12 (stereo not drawn),> 50,tde,10.9,16.3,1.4,70.9
